Values of other authors, collected in patent publication EP1550371A2, “Pesticidal compositions comprising an oxathiin and triazole fungicides” (Tovarystvo z obmegenoyu vidpovidalnistyu "Prezence", priority 2003, dated 2005).

Experiments:
rabbits = settings: in rabbits
[1] = at 25 °C
rats [2] = settings: in rats
rats [3] = settings: in rats; remark: listed apart in the source
mice = settings: in mice
quails = settings: in quails
powdery mildew and rust = settings: in experiments

SMILES: CC1=C(C(=O)Nc2ccccc2)SCCO1 [Carboxin, 5,6-dihydro-2-methyl-1,4-oxathiin-3-carboxanyl]
- skin-resorptive LD50 (rabbits): above 8 g/kg
- Solubility in acetone [1]: 60%
- Solubility in dimethylsulfoxide [1]: 150%
- Solubility in ethyl alcohol [1]: 21%
- Solubility in gasoline [1]: 15%
- Solubility in methyl alcohol [1]: 21%
- Solubility in water [1]: 0.017%
- oral LD50 (rats [2]): 3800 mg/kg

SMILES: CC(C)(C)C(O)(CCc1ccc(Cl)cc1)Cn1cncn1 (stereo not shown) [Tebuconazol, RS-1-(4-chlorophenyl)-4,4-dimethyl-3-(1H-1,2,4-triazol-1-ilmethyl) pentan-3-ol]
- skin-resorbtive toxicity (rats [3]): above 5 g/kg
- oral LD50 (mice): 1600 to 3900 mg/kg
- oral LD50 (rats [2]): 3900 to 5000 mg/kg

SMILES: CC(C)(C)C(O)C(Oc1ccc(Cl)cc1)n1cncn1 (stereo not shown) [Triadimenol]
- skin-resorbtive toxicity (rats [3]): above 5 g/kg
- oral LD50 (quails): 10000 mg/kg
- oral LD50 (mice): 1300 mg/kg
- Protective systemic action against powdery mildew and rust (powdery mildew and rust): 4 to 8 days
- oral LD50 (rats [2]): 700 to 1500 mg/kg
